Experimental data published in patent publication EP0325279A1, “Dehydrocholecalciferol derivatives” (F. HOFFMANN-LA ROCHE AG, priority 1988, dated 1989).
Values joined by “and” are separate entries in the source; they are usually repeats but may differ in a detail not shown here. Identical values can stand only once.

Legend:
Format in all cases: cell-based
[1] = test system: menschlicher promyelocytischer Tumorzellen HL-60; experiment: Differentiation-inducing (DI) effect on HL-60 cells; details: for EC50: Homo sapiens, concentration that causes 50% differentiation of the cells, read-out: ED50 (the source's name)
Text: (§1) Zum Nachweis der Aktivität der Verbindungen der Formel I als Mittel zur Behandlung von neoplastischen Krankheiten wurden die antiproliferativen (AP) und die Differenzierung induzierenden Effekte (DI) der Verbindungen A bis F sowie die Anzahl menschlicher promyelocytischer Tumorzellen HL-60 ermittelt. In Tabelle 6 ist der AP Effekt als prozentuale Reduktion der Anzahl Zellen und als Konzentration ID₅₀, die die Zellenanzahl um 50% reduziert, angegeben. Der DI Effekt ist angegeben als Prozentsatz der differenzierten Zellen und als Konzentration ED₅₀ der Verbindungen, die eine 50%ige Differenzierung der Zellen bewirkt.

[2] = test system: gezüchteten menschlichen Keratinocyten; experiment: Morphological differentiation of cultured human keratinocytes (cell counts by cell type)
[3] = test system: menschlicher promyelocytischer Tumorzellen HL-60; experiment: Antiproliferative (AP) effect on HL-60 cells; details: for IC50: Homo sapiens, concentration that reduces the cell number by 50%, read-out: ID50 (the source's name)
Text: as §1

[4] = test system: menschlichen Keratinocyten; experiment: Number of human keratinocytes and cornified squamous cells formed in presence of compound
Text: (§2) Die Aktivität der Verbindungen der Formel I als Mittel für die Behandlung von hyperproliferativen Hautkrankheiten kann auch durch Ermittlung der Anzahl von menschlichen Keratinocyten, von verhornten Plattenepithelzellen und von Plattenepithel-Karzinomzellenlinien (SCC-115), die sich in Gegenwart der besagten Verbindungen bilden.
(§3) Die Resultate sind in den Tabellen 4 und 5 angegeben: Tabelle 4

[5] = test system: Plattenepithel-Karzinomzellenlinien (SCC-15); experiment: Number of squamous carcinoma cell line cells formed in presence of compound
Text: as §2, §3

[6] = Konzentration 0.01 (head prints x10 M)
[7] = Konzentration 0.1 (head prints x10 M)
[8] = Konzentration 1 (head prints x10 M)
[9] = Konzentration 10 (head prints x10 M)
[10] = Konzentration 100 (head prints x10 M)

| Structure (SMILES) | EC50 [1] [nM] | Differenzierte Zellen (%) [1, 6] [%] | Differenzierte Zellen (%) [1, 7] [%] | Differenzierte Zellen (%) [1, 8] [%] | Differenzierte Zellen (%) [1, 9] [%] | Anzahl Zellen (x10⁴): Basalzellen ([2]; Dosis 10⁻¹⁰ M) [x10⁴] | Anzahl Zellen (x10⁴): Gesamtanzahl ([2]; Dosis 10⁻¹⁰ M) [x10⁴] | Anzahl Zellen (x10⁴): Plattenepithelzellen ([2]; Dosis 10⁻¹⁰ M) [x10⁴] | Anzahl Zellen (x10⁴): verhornte Plattenepithelzellen ([2]; Dosis 10⁻¹⁰ M) [x10⁴] | Anzahl Zellen (x10⁴): Basalzellen ([2]; Dosis 10⁻⁶ M) [x10⁴] | Anzahl Zellen (x10⁴): Gesamtanzahl ([2]; Dosis 10⁻⁶ M) [x10⁴] | Anzahl Zellen (x10⁴): Plattenepithelzellen ([2]; Dosis 10⁻⁶ M) [x10⁴] | Anzahl Zellen (x10⁴): verhornte Plattenepithelzellen ([2]; Dosis 10⁻⁶ M) [x10⁴] | Anzahl Zellen (x10⁴): Basalzellen ([2]; Dosis 10⁻⁸ M) [x10⁴] | Anzahl Zellen (x10⁴): Gesamtanzahl ([2]; Dosis 10⁻⁸ M) [x10⁴] | Anzahl Zellen (x10⁴): Plattenepithelzellen ([2]; Dosis 10⁻⁸ M) [x10⁴] | Anzahl Zellen (x10⁴): verhornte Plattenepithelzellen ([2]; Dosis 10⁻⁸ M) [x10⁴] | IC50 [3] [nM] | % Reduktion der Anzahl Zellen [3, 6] [%] | % Reduktion der Anzahl Zellen [3, 7] [%] | also measured |
| --- | --- | --- | --- | --- | --- | --- | --- | --- | --- | --- | --- | --- | --- | --- | --- | --- | --- | --- | --- | --- | --- |
| C=C1/C(=C\C=C2/CCC[C@]3(C)C([C@H](C)CCCC(C)(C)O)=CC[C@@H]23)C[C@@H](O)C[C@@H]1O [Verbindung A, 1,25-Dihydroxy-16-dehydrocholecalciferol] | 2 | 3 | 16 | 92 | 97 | 115±7 | 132±8 | 17±1 | 27±2 | 71±5 | 101±7 | 30±2 | 39±2 | 106±8 | 128±10 | 22±2 | 33±2 | 2 | 10 | 33 | Differenzierte Zellen (%) [1, 10]: 98%; % Reduktion der Anzahl Zellen [3, 8]: 84%; % Reduktion der Anzahl Zellen [3, 9]: 85%; % Reduktion der Anzahl Zellen [3, 10]: 85%; Anzahl Keratinocten (x10⁴) ([4]; Dosis 10⁻¹² M): 114.91±10.95 x10⁴; Anzahl verhornte Plattenepithelzellen (x10²) ([4]; Dosis 10⁻¹² M): 1662.2± 420.1 x10²; Anzahl Keratinocten (x10⁴) ([4]; Dosis 10⁻¹⁰ M): 130.37±24.32 x10⁴; Anzahl verhornte Plattenepithelzellen (x10²) ([4]; Dosis 10⁻¹⁰ M): 3973.8± 126.99 x10²; Anzahl Keratinocten (x10⁴) ([4]; Dosis 10⁻⁶ M): 109.22±15.87 x10⁴; Anzahl verhornte Plattenepithelzellen (x10²) ([4]; Dosis 10⁻⁶ M): 8323.5± 157.6 x10²; Anzahl Keratinocten (x10⁴) ([4]; Dosis 10⁻⁸ M): 120.67±16.87 x10⁴; Anzahl verhornte Plattenepithelzellen (x10²) ([4]; Dosis 10⁻⁸ M): 7235.2± 55.5 x10² |
| C=C1/C(=C\C=C2/CCC[C@]3(C)C([C@H](C)CC#CC(C)(C)O)=CC[C@@H]23)C[C@@H](O)C[C@@H]1O [Verbindung E] | 1 | 9 | 50 | 96 | 98 | 63±2 | 86±4 | 23±2 | 114±5 | 41±1 | 78±3 | 27±2 | 147±4 | 53±2 | 82±3 | 29±1 | 141±5 | 0.7 | 6 | 59 | % Reduktion der Anzahl Zellen [3, 8]: 80%; % Reduktion der Anzahl Zellen [3, 9]: 81%; Anzahl Keratinocten (x10⁴) ([4]; Dosis 10⁻¹² M): 187.36±15.33 x10⁴; Anzahl verhornte Plattenepithelzellen (x10²) ([4]; Dosis 10⁻¹² M): 1136.63± 383.66 x10²; Anzahl Keratinocten (x10⁴) ([4]; Dosis 10⁻¹⁰ M): 175.34±10.19 x10⁴; Anzahl verhornte Plattenepithelzellen (x10²) ([4]; Dosis 10⁻¹⁰ M): 1444.87± 312.47 x10²; Anzahl Keratinocten (x10⁴) ([4]; Dosis 10⁻⁶ M): 41.95± 7.53 x10⁴; Anzahl verhornte Plattenepithelzellen (x10²) ([4]; Dosis 10⁻⁶ M): 1916.83± 887.66 x10²; Anzahl Keratinocten (x10⁴) ([4]; Dosis 10⁻⁸ M): 145.79±15.66 x10⁴; Anzahl verhornte Plattenepithelzellen (x10²) ([4]; Dosis 10⁻⁸ M): 2113.62±1049.33 x10²; Anzahl Zellenlinien (SCC-15) (x10⁵) ([5]; Dosis 10⁻¹² M): 6.98±1.68 x10⁵; Anzahl Zellenlinien (SCC-15) (x10⁵) ([5]; Dosis 10⁻¹⁰ M): 5.89±1.58 x10⁵; Anzahl Zellenlinien (SCC-15) (x10⁵) ([5]; Dosis 10⁻⁶ M): 0.40±0.98 x10⁵ and 0.49±0.13 x10⁵; Anzahl Zellenlinien (SCC-15) (x10⁵) ([5]; Dosis 10⁻⁸ M): 5.76±1.53 x10⁵ |
